Twelve molecules from patent publication US8846692B2, “Carboxylic acid derivatives having a 2,5-substituted oxazolopyrimidine ring” (Sanofi, priority 2010, dated 2014) can be followed below.

One experiment deals with T1, human Edg-1 receptor (Homo sapiens, UniProt P21453).
T1 construct: expressed in transfected cells; membrane preparation
T1 sequence (P21453 whole entry): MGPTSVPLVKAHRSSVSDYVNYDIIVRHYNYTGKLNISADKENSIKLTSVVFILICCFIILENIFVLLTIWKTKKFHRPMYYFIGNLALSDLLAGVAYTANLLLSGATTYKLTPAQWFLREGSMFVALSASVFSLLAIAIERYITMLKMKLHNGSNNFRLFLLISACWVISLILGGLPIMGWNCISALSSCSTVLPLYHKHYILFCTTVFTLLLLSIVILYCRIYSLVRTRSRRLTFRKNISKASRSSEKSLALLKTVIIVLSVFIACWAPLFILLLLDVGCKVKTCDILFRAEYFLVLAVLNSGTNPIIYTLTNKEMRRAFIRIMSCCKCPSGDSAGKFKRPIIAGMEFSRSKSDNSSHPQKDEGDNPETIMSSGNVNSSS
The experiment in a line: GTP-γ-S assay using human Edg-1 receptors (scintillation proximity assay, CHO Flp-In cell membrane preparation). The experiment is classed as biochemical. The following applies: test compound at 10 μM; 10 μM S1P high control regarded as 100% activation; triplicate. An excerpt: Determination of the Pharmacological Activity A) GTP-γ-S Assay Using Human Edg-1 Receptors
In order to determine the Edg-1 receptor activation by the compounds of the invention, a GTP-γ-S (guanosine 5′-[γ-thio]triphosphate) assay for G-protein coupled receptor binding based on the scintillation proximity assay principle was used, employing a cell membrane preparation from a CHO Flp-In cell line which constitutively overexpresses the human Edg-1 receptor.
A membrane preparation was obtained by standard methods from the afore-described CHO Flp-In cell line constitutively overexpressing the human Edg-1 receptor. Briefly, the cryopreserved cells were taken in culture and grown until confluency in T175 cell culture flasks (Becton Dickinson, cat. no. 35 5001). Cell culture was stopped by washing with calcium-free phosphate-buffered saline (PBS; Gibco, cat. no. 14190), and cells were harvested with a rubber-policeman in 4° C. cold and calcium-free PBS supplemented with a protease inhibitor cocktail (complete protease inhibitor; Roche, cat. no. 1697498; 1 tablet per 50 ml) and subsequently centrifuged at 4° C. for 15 min at 1100×g (Heraeus Minifuge T). For cell lysis, the pellet was resuspended in a 4° C. cold hypotonic buffer consisting of 5 mM HEPES (Sigma-Aldrich, cat. no. H-0981), 1 mM EDTA (disodium salt; Merck, cat. No. 8418) supplemented with protease inhibitor cocktail (as above) in which cells were stored for another 15 min on ice. After lysis, cells were centrifuged at 4° C. for 10 min at 400×g (Heraeus Minifuge T). The pellet was disrupted in a Dounce homogenizer, diluted with the supernatant of the previous centrifugation and subsequently centrifuged at 4° C. for 10 min at 500×g (Heraeus Minifuge T) in order to separate nuclei and still intact cells from the membranes mainly present in the supernatant. The supernatant was then diluted in hypotonic buffer and centrifuged (Beckmann, Avanti J251) at approximately 18600×g for 2 h at 4° C. After centrifugation, the membrane pellet was resuspended in a storing buffer consisting of 20 mM HEPES; 150 mM NaCl (Merck, cat. no. 6400), 1 mM EDTA (as above) supplemented with protease inhibitor cocktail (as above). The membrane preparation was aliquoted and stored at −80° C. Protein concentration of the membrane preparation was determined in a sample by means of a commercial protein assay (Bio-Rad, DC Protein Assay, cat. nos. 500-0113, 500-0114, 500-0115).
The Edg-1 membrane preparation obtained in (b) was employed in a commercially available scintillation proximity assay (SPA) kit for G-protein coupled receptor binding from Amersham Biosciences/GE Healthcare (code RPNQ0210), in which ligand-induced binding of ^35S-radiolabled GTP-γ-S to the receptor-containing membrane, which is bound to scintillation beads, stimulates the emission of light and allows to quantify the in vitro activity of the Edg-1 agonistic compound. The assay was performed on a 96-well plate scale substantially according to the manufacturer's instructions. Before start of the experiments, scintillation beads were suspended in a reconstitution buffer consisting of Tris-HCl (pH 7.4) supplemented with 0.1% (w/v) sodium azide and subsequently diluted on ice with assay buffer (consisting of 20 mM HEPES, 100 mM NaCl, 1 mM EDTA (as above), 1 mM dithiothreitol (DTT), adjusted to pH 7.4) to a final bead concentration of 30 mg/ml.
Wells were charged with 10 μl of the specified assay buffer, 10 μl of a 100 μM guanosine diphosphate (GDP) solution, and 10 μl of a solution of the test compound in assay buffer/dimethylsulfoxide resulting in a final concentration of the test compound of 10 μM. For the high controls, 10 μl of a solution of sphingosine-1-phosphate (S1P; Sigma, cat. no. S-9666), resulting in a final S1P concentration of 10 μM, and for the low controls 10 μl of assay buffer, was added into respective wells instead of the solution of the test compound. All wells contained equivalent amounts of dimethylsulfoxide. […]
On the technique in general: In a scintillation proximity assay essentially only radioactivity close to the scintillant gives light.
In the case of `Cc1cc(-c2nc3cnc(Oc4cccc(Cl)c4)nc3o2)cc(C)c1OCC(=O)O` [Example 8, {4-[5-(3-chloro-phenoxy)-oxazolo[5,4-d]pyrimidin-2-yl]-2,6-dimethyl-phenoxy}-acetic acid], the “% Activation (Edg-1 receptor activation in percent of the activation by 10 μM S1P)” value amounted to 74%.

Still in this experiment, the particulars now being: test compound at 10 μM; 10 μM S1P high control regarded as 100% activation; triplicate; read-out: % Activation (Edg-1 receptor activation in percent of the activation by 10 μM S1P).
For the molecule `Cc1cc(-c2nc3cnc(Oc4ccccc4)nc3o2)cc(C)c1OCC(=O)O` [Example 1, [2,6-Dimethyl-4-(5-phenoxy-oxazolo[5,4-d]pyrimidin-2-yl)-phenoxy]-acetic acid], the activation at 10 µM is 116%.

With `O=C(O)/C=C/c1ccc(-c2nc3cnc(Oc4ccccc4F)nc3o2)cc1` [Example 2, (E)-3-{4-[5-(2-Fluoro-phenoxy)-oxazolo[5,4-d]pyrimidin-2-yl]-phenyl}-acrylic acid], the activation at 10 µM was 83%.

For `Cc1cc(-c2nc3cnc(Oc4ccc(F)cc4F)nc3o2)cc(C)c1OCC(=O)O` [Example 3, {4-[5-(2,4-difluoro-phenoxy)-oxazolo[5,4-d]pyrimidin-2-yl]-2,6-dimethyl-phenoxy}-acetic acid], the activation at 10 µM is 95%.

For the molecule `Cc1cc(-c2nc3cnc(Oc4cc(F)ccc4F)nc3o2)cc(C)c1OCC(=O)O` [Example 4, {4-[5-(2,5-difluoro-phenoxy)-oxazolo[5,4-d]pyrimidin-2-yl]-2,6-dimethyl-phenoxy}-acetic acid], the activation at 10 µM amounted to 103%.

In the case of `Cc1ccc(Oc2ncc3nc(-c4cc(C)c(OCC(=O)O)c(C)c4)oc3n2)c(F)c1` [Example 5, {4-[5-(2-fluoro-4-methyl-phenoxy)-oxazolo[5,4-d]pyrimidin-2-yl]-2,6-dimethyl-phenoxy}-acetic acid], the activation at 10 µM stood at 101%.

As for `Cc1cc(-c2nc3cnc(Oc4ccccc4F)nc3o2)cc(C)c1OCC(=O)O` [Example 6, {4-[5-(2-fluoro-phenoxy)-oxazolo[5,4-d]pyrimidin-2-yl]-2,6-dimethyl-phenoxy}-acetic acid], the activation at 10 µM amounted to 110%.

For the molecule `Cc1cc(-c2nc3cnc(Oc4ccccc4F)nc3o2)cc(C)c1OC(C)C(=O)O` (stereo not drawn) [Example 7, 2-{4-[5-(2-fluoro-phenoxy)-oxazolo[5,4-d]pyrimidin-2-yl]-2,6-dimethyl-phenoxy}-propionic acid], the activation at 10 µM is 84%.

As for `Cc1ccc(Oc2ncc3nc(-c4cc(C)c(OCC(=O)O)c(C)c4)oc3n2)cc1F` [Example 9, {4-[5-(3-fluoro-4-methyl-phenoxy)-oxazolo[5,4-d]pyrimidin-2-yl]-2,6-dimethyl-phenoxy}-acetic acid], the activation at 10 µM is 87%.

Consider `Cc1ccc(F)cc1Oc1ncc2nc(-c3cc(C)c(OCC(=O)O)c(C)c3)oc2n1` [Example 10, {4-[5-(5-fluoro-2-methyl-phenoxy)-oxazolo[5,4-d]pyrimidin-2-yl]-2,6-dimethyl-phenoxy}-acetic acid], for which the activation at 10 µM amounted to 112%.

`Cc1cc(-c2nc3cnc(Oc4ccc(Cl)cc4)nc3o2)cc(C)c1OCC(=O)O` [Example 11, {4-[5-(4-chloro-phenoxy)-oxazolo[5,4-d]pyrimidin-2-yl]-2,6-dimethyl-phenoxy}-acetic acid]: the activation at 10 µM stood at 105%.

Turning to `Cc1cc(-c2nc3cnc(OC4CCCC4)nc3o2)cc(C)c1OCC(=O)O` [Example 12, [4-(5-cyclopentyloxy-oxazolo[5,4-d]pyrimidin-2-yl)-2,6-dimethyl-phenoxy]-acetic acid], the activation at 10 µM came to 46%.
